How the values were obtained:
[1] = target: T1, D-amino-acid oxidase (Homo sapiens, UniProt P14920); experiment: Inhibition of human DAAO at 20 uM using D-kynurenine as substrate relative to control
Target sequence in this assay (P14920 whole entry, looked up): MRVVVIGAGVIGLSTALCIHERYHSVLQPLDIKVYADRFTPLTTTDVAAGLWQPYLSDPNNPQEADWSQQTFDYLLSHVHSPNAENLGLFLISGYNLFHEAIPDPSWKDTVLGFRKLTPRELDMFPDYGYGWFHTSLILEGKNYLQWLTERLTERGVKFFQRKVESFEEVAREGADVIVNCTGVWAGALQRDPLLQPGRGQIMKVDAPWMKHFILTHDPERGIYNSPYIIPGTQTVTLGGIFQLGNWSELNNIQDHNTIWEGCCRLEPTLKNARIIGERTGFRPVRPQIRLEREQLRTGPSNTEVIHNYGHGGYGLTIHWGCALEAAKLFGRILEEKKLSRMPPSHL

[2] = target: T1, D-amino-acid oxidase; experiment: Inhibition of human DAAO using D-kynurenine as substrate
Target sequence in this assay (P14920 whole entry): as the sequence (P14920 whole entry, looked up) above

Compound	inhibition [1] [%]	IC50 [2] [µM]
O=C(O)CNC(=O)c1cc(NC(=O)c2cc3ccccc3[nH]2)c[nH]1	8	
O=C(O)CNC(=O)c1cc(NC(=O)c2ccc([N+](=O)[O-])[nH]2)c[nH]1	33	
Cc1[nH]c(C(=O)Nc2c[nH]c(C(=O)NCC(=O)O)c2)c(Cl)c1Cl	100	8.8
O=C(O)CNC(=O)c1cc(NC(=O)c2cc(Br)c(Br)[nH]2)c[nH]1	100	0.39
O=C(O)CNC(=O)c1cc([N+](=O)[O-])c[nH]1	35	
Cn1cc(NC(=O)c2cc(Br)c(Br)[nH]2)cc1C(=O)NCC(=O)O	32	
O=C(O)CNC(=O)c1cc(NC(=O)c2cccnc2)c[nH]1	45	

Second part, the compound after the results:

inhibition [1] [%]	IC50 [2] [µM]	Compound
39		CC(=O)Nc1c[nH]c(C(=O)NCC(=O)O)c1
0		CN(CC(=O)O)C(=O)c1cc(N(C)C(=O)c2cc(Br)c(Br)[nH]2)c[nH]1
0		CN(C(=O)c1cc(Br)c(Br)[nH]1)c1c[nH]c(C(=O)NCC(=O)O)c1
100	0.49	CN(CC(=O)O)C(=O)c1cc(NC(=O)c2cc(Br)c(Br)[nH]2)c[nH]1
18		O=C(O)CNC(=O)c1cc(NC(=O)c2ccccn2)c[nH]1
100	6.7	O=C(O)CNC(=O)c1cc(NC(=O)c2cc(Br)c[nH]2)c[nH]1
100	5.2	O=C(O)CNC(=O)c1cc(NC(=O)c2cc(Cl)c(Cl)[nH]2)c[nH]1

Source: ChEMBL document CHEMBL4219249, “Discovery of d-amino acid oxidase inhibitors based on virtual screening against the lid-open enzyme conformation” (Bioorg Med Chem Lett, 2018)
